Test results taken from patent US20250034089A1, “TETRAHYDROCARBAZOLE COMPOUND, AND PHARMACEUTICAL COMPOSITION AND USE THEREOF” (NAIN BIOTECH (HANGZHOU) CO., LTD., priority 2021, published 2025).

How the values were obtained:
[1] = system: HeLa (human cervical cancer cells); assay: In vitro proliferation inhibition (CCK-8), HeLa; format: cell-based; conditions: Homo sapiens
Source text: (§1) • 1) Cell sources: HeLa (human cervical cancer cells), CaSki (human cervical cancer intestinal metastasis cells), Huh7 (human liver cancer cells), HepG2 (human liver cancer cells), Hep3B (human liver cancer cells) were purchased from the Chinese Academy of Sciences cell bank (Shanghai); LO2 (human normal liver cells) and HcerEpic (human normal uterine epithelial cells) were from ATCC. • 2) Cell culture and passage: The cell culture and passage method is the same as that described in “The inhibitory effect of compounds on the OCT4 protein in tumor stem cells (CSC)”. • 3) Cell dosing treatment: The each type of cells mentioned above was digested, counted, and inoculated in each well of the 96 well cell culture plate (#3988, Corning) at a density of 5000 cells/200 μl culture medium. They were cultured in a cell culture incubator at 37° C. and 5% CO2 for 24 hours to allow the cells to fully adherent to the wall. Then, the original culture medium was replaced with complete culture medium containing gradient diluted KZT-A5 (each concentration with 3 repeated wells) as well as DMSO (#D5879, Sigma Aldrich) solvent control, and they are cultured for additional 72 hours. • 4) Pharmacodynamic test and statistics: First, the morphology of cells treated with the above compounds was observed, photographed and recorded using an inverted phase contrast microscope (X71, Olympus). Then the original culture medium was replaced with phenol red free culture medium containing CCK-8 detection reagent (#E606335, Shanghai Shenggong) respectively, and they are cultured in the incubator for additional 2 hours. Then the OD450 nm absorbance value (OD value) was measured on a multifunctional enzyme-linked immunosorbent assay (168-1130, Bio Rad). After the cells were treated with the test compound, the equations for calculating the cell survival rate or cell growth rate is: survival rate=GD value of the treated group/OD value of the control group×100%; the equations for calculating the growth inhibition rate of compounds on cell proliferation is: inhibition rate=(OD value of control group−OD value of the treated group)/OD value of control group×100%. Further, the IC50 of each compound was calculated in SPSS based on the inhibition rate.
(§2) • 1) Cell sources: Huh7 (human liver cancer cells), HepG2 (human liver cancer cells), Hep3B (human liver cancer cells), and HeLa (human cervical cancer cells) were all purchased from the Chinese Academy of Sciences cell bank (Shanghai), while LO2 (human normal liver cells) was obtained from ATCC. • 2) Cell culture and passage: The cell culture and passage method is the same as that described in “The inhibitory effect of compounds on human tumor cell lines from different tissue sources (1)”. • 3) Cell dosing treatment: The cell dosing treatment method is the same as that described in “The inhibitory effect of compounds on human tumor cell lines from different tissue sources (1). • 4) Pharmacodynamic test and statistics: The pharmacodynamic test and statistics method is the same as that described in “The inhibitory effect of compounds on human tumor cell lines from different tissue sources (1)”. The IC50 value data of the compound on each type of tumor cells is the average±standard deviation of three wells in one test.

[2] = system: Huh7 (human liver cancer cells); assay: In vitro proliferation inhibition (CCK-8), Huh7; format: cell-based; conditions: Homo sapiens, Huh-7, Huh7, test (2), average±standard deviation of three wells
Source text: as §1, §2

[3] = system: HepG2 (human liver cancer cells); assay: In vitro proliferation inhibition (CCK-8), HepG2; format: cell-based; conditions: Homo sapiens; HepG2, test (2), average±standard deviation of three wells
Source text: (§3) • 1) Cell sources: HeLa (human cervical cancer cells), CaSki (human cervical cancer intestinal metastasis cells), Huh7 (human liver cancer cells), HepG2 (human liver cancer cells), Hep3B (human liver cancer cells) were purchased from the Chinese Academy of Sciences cell bank (Shanghai); LO2 (human normal liver cells) and HcerEpic (human normal uterine epithelial cells) were from ATCC. • 2) Cell culture and passage: The cell culture and passage method is the same as that described in “The inhibitory effect of compounds on the OCT4 protein in tumor stem cells (CSC)”. • 3) Cell dosing treatment: The each type of cells mentioned above was digested, counted, and inoculated in each well of the 96 well cell culture plate (#3988, Corning) at a density of 5000 cells/200 μl culture medium. They were cultured in a cell culture incubator at 37° C. and 5% CO2 for 24 hours to allow the cells to fully adherent to the wall. Then, the original culture medium was replaced with complete culture medium containing gradient diluted KZT-A5 (each concentration with 3 repeated wells) as well as DMSO (#D5879, Sigma Aldrich) solvent control, and they are cultured for additional 72 hours. • 4) Pharmacodynamic test and statistics: First, the morphology of cells treated with the above compounds was observed, photographed and recorded using an inverted phase contrast microscope (X71, Olympus). Then the original culture medium was replaced with phenol red free culture medium containing CCK-8 detection reagent (#E606335, Shanghai Shenggong) respectively, and they are cultured in the incubator for additional 2 hours. Then the OD450 nm absorbance value (OD value) was measured on a multifunctional enzyme-linked immunosorbent assay (168-1130, Bio Rad). After the cells were treated with the test compound, the equations for calculating the cell survival rate or cell growth rate is: survival rate=GD value of the treated group/OD value of the control group×100%; the equations for calculating the growth inhibition rate of compounds on cell proliferation is: inhibition rate=(OD value of control group−OD value of the treated group)/OD value of control group×100%. Further, the IC50 of each compound was calculated in SPSS based on the inhibition rate. […]

[4] = system: Hep3B (human liver cancer cells); assay: In vitro proliferation inhibition (CCK-8), Hep3B; format: cell-based; conditions: Homo sapiens, test (2), average±standard deviation of three wells
Source text: as §3

[5] = system: LO2 (human normal liver cells); assay: In vitro proliferation inhibition (CCK-8), LO2; format: cell-based; conditions: LO2, test (2), average±standard deviation of three wells
Source text: • 1) Cell sources: HeLa (human cervical cancer cells), CaSki (human cervical cancer intestinal metastasis cells), Huh7 (human liver cancer cells), HepG2 (human liver cancer cells), Hep3B (human liver cancer cells) were purchased from the Chinese Academy of Sciences cell bank (Shanghai); LO2 (human normal liver cells) and HcerEpic (human normal uterine epithelial cells) were from ATCC. • 2) Cell culture and passage: The cell culture and passage method is the same as that described in “The inhibitory effect of compounds on the OCT4 protein in tumor stem cells (CSC)”. • 3) Cell dosing treatment: The each type of cells mentioned above was digested, counted, and inoculated in each well of the 96 well cell culture plate (#3988, Corning) at a density of 5000 cells/200 μl culture medium. They were cultured in a cell culture incubator at 37° C. and 5% CO2 for 24 hours to allow the cells to fully adherent to the wall. Then, the original culture medium was replaced with complete culture medium containing gradient diluted KZT-A5 (each concentration with 3 repeated wells) as well as DMSO (#D5879, Sigma Aldrich) solvent control, and they are cultured for additional 72 hours. • 4) Pharmacodynamic test and statistics: First, the morphology of cells treated with the above compounds was observed, photographed and recorded using an inverted phase contrast microscope (X71, Olympus). Then the original culture medium was replaced with phenol red free culture medium containing CCK-8 detection reagent (#E606335, Shanghai Shenggong) respectively, and they are cultured in the incubator for additional 2 hours. Then the OD450 nm absorbance value (OD value) was measured on a multifunctional enzyme-linked immunosorbent assay (168-1130, Bio Rad). […] Further, the IC50 of each compound was calculated in SPSS based on the inhibition rate. […]

HeLa cells = assay: Clone formation of HeLa cells, single drugs and combination; format: cell-based, human; conditions: 700 nM KZT-A5, 100 nM SGI-1027, two weeks, compared with DMSO control, FIG. 7
Source text: • 1) Cell source: HeLa cells were purchased from the Chinese Academy of Sciences Cell Bank (Shanghai). • 2) Cell culture and passage: The cell culture and passage method is the same as that described in “Inhibition of OCT4 protein in tumor stem cells (CSCs) by compounds”. • 3) Cell dosing treatment: The cells were inoculated into a 6-well plate containing the aforementioned culture medium at a density of 200 cells per well. They were divided into four groups, and DMSO (as blank control group), 700 nM KZT-A5 (as KZT-A5 single drug group), 100 nM SGI-1027 (as SGI-1027 single drug group), and 700 nM KZT-A5+100 nM SGI-1027 (as combination group) was added respectively. After two weeks, they were photographed, and the number of clones was counted in each group respectively.

[6] = 72 h, CCK-8, average of three wells in one test
[7] = 72 hours, CCK-8, average of three wells in one test

| Compound | IC50 [1, 6] | other results |
| --- | --- | --- |
| CCC(CO)/N=C1\CCCc2c1[nH]c1ccc(C)cc21 (stereo not drawn) [AH057, reference compound] |  | IC50 ([1]; test (2), average±standard deviation of three wells): 0.63 ± 0.03 µM; IC50 [2]: 44.2 ± 1.61 µM; IC50 [3]: 40.02 ± 0.08 µM; IC50 [4]: 18 ± 1.2 µM; IC50 [5]: 85.5 ± 2.92 µM |
| COc1cc(CC2CCc3c([nH]c4ccc(C)cc34)C2=O)ccc1O (stereo not drawn) [Compound 8] | < 50 µM |  |
| Cc1ccc2[nH]c3c(c2c1)CC/C(=C\c1c[nH]c2ncccc12)C3=O [Compound 14] | < 50 µM |  |
| Cc1ccc2[nH]c3c(c2c1)CC/C(=C\c1ccnc2[nH]ccc12)C3=O [Compound 16] | < 50 µM |  |
| COc1ccc2[nH]c3c(c2c1)CC/C(=C\c1ccc(O)c(OC)c1)C3=O [Compound 18] |  | IC50 [1, 7]: < 50 µM |
| COc1cc(/C=C2\CCc3c([nH]c4ccc(Br)cc34)C2=O)ccc1O [Compound 19] | < 50 µM |  |
| COc1cc(/C=C2\CCc3c([nH]c4ccc(C#N)cc34)C2=O)ccc1O [Compound 20] | < 50 µM |  |
| COC(=O)c1ccc2[nH]c3c(c2c1)CC/C(=C\c1ccc(O)c(OC)c1)C3=O [Compound 21] | < 50 µM |  |
| COc1cc(/C=C2\CCc3c([nH]c4ccc(N5CCC(O)CC5)cc34)C2=O)ccc1O [Compound 22] | < 50 µM |  |
| COc1cc(/C=C2\CCc3c([nH]c4ccc(N5CCNCC5)cc34)C2=O)ccc1O [Compound 23] | < 50 µM |  |
| COc1cc(/C=C2\CCc3c([nH]c4ccc(-c5cn[nH]c5)cc34)C2=O)ccc1O [Compound 24] | < 50 µM |  |
| C#Cc1ccc2[nH]c3c(c2c1)CC/C(=C\c1ccc(O)c(OC)c1)C3=O [Compound 25] | < 50 µM |  |
| COc1cc(/C=C2\CCc3c([nH]c4ccc(F)cc34)C2=O)ccc1O [Compound 27] | < 50 µM |  |
| COC(=O)c1ccc2[nH]c3c(c2n1)CC/C(=C\c1ccc(O)c(OC)c1)C3=O [Compound 28] | < 50 µM |  |
| COc1cc(/C=C2\CCc3c([nH]c4cc(OC)c(OC)cc34)C2=O)ccc1O [Compound 31] | < 50 µM |  |
| COc1cc(/C=C2\CCc3c([nH]c4c(Cl)cc(Cl)cc34)C2=O)ccc1O [Compound 32] | < 50 µM |  |
| COc1ccc2[nH]c3c(c2n1)CC/C(=C\c1ccc(O)c(OC)c1)C3=O [Compound 33] | < 50 µM |  |
| COc1cc(/C=C2\CC(C)(C)c3c([nH]c4ccc(C)cc34)C2=O)ccc1O [Compound 34] |  | IC50 [1, 7]: < 50 µM |
| COc1cc(/C=C2\Cc3c([nH]c4ccc(C)cc34)C2=O)ccc1O [Compound 35] |  | IC50 [1, 7]: < 50 µM |
| COc1cc(/C=C2\CSc3c([nH]c4ccc(C)cc34)C2=O)ccc1O [Compound 36] |  | IC50 [1, 7]: < 50 µM |
| COc1cc(/C=C2\CCCc3c([nH]c4ccc(C)cc34)C2=O)ccc1O [Compound 37] |  | IC50 [1, 7]: < 50 µM |
| COc1cc(/C=C2\CCc3c([nH]c4ccc(C)cc34)C2=O)cc(OC)c1OC [Compound 38] |  | IC50 [1, 7]: < 50 µM |
| Cc1cc(Nc2ccc(NC(=O)c3ccc(Nc4ccnc5ccccc45)cc3)cc2)nc(N)n1 [SGI-1027, reference compound] |  | inhibition of clone formation (HeLa cells): only slightly inhibits clone formation |
